{"source": "paper PMC12486805", "about": "“Preclinical evaluation of tridecaptin M: in vitro and in vivo efficacy against colistin-resistant Gram-negative bacterial pathogens and pharmacokinetics” (Antimicrobial Agents and Chemotherapy, 2025)", "key": {"[1]": {"molecular_target": "CYP2C9 (Homo sapiens, UniProt P11712)", "sequence (P11712 whole entry, canonical isoform)": "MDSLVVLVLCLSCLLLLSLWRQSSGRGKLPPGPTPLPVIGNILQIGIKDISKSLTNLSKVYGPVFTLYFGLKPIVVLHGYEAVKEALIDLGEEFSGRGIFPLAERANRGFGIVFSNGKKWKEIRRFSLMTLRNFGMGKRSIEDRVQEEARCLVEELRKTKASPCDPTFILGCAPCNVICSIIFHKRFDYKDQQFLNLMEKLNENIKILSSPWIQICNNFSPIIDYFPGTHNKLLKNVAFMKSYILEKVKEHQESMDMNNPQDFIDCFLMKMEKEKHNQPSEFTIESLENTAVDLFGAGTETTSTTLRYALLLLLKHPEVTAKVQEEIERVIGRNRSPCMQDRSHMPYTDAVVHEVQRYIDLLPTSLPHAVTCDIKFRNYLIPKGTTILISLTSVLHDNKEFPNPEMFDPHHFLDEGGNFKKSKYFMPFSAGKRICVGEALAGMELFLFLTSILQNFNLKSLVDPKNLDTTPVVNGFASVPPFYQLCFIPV", "assay": "CYP inhibition assay, recombinant isoform, fluorescence", "assay_type": "biochemical", "conditions": "human, read-out: % inhibition CYP 2C9", "description": "(§1) The CYP inhibition assay was performed for test/control inhibitor items in duplicates using a 96-well fluorescence plate. An example of the preparation of CYP inhibition is given below in Table 8.\n(§2) The plate with CYP master premix with test/control was incubated to allow the test/control samples to interact with CYP enzyme for 10 ± 1 min at 25°C under shaking conditions (400 rpm) using Thermomixer. The assay was initiated by adding 10 µL of a substrate and NADP^+ mixture to all wells, including a vehicle control and an assay blank. The plate was then incubated at 25°C for 25 min with shaking at 400 rpm using a thermomixer. After incubation, the reaction was quenched by adding 50 µL of stop reagent (0.5 M Tris base) to each well. Fluorescence was measured using a microplate reader at excitation/emission wavelengths of 415/460 nm, respectively ([37])."}, "[2]": {"conditions": "cited from earlier work"}, "[3]": {"system": "K. pneumoniae AH-16", "assay": "Mucin peritonitis survival model in BALB/c mice", "assay_type": "in vivo, Klebsiella pneumoniae", "conditions": "5 mg/kg s.c., three doses at 2, 12, 24 h post-infection", "description": "The survival study was performed by following a method described earlier, with some modifications; 8–10 week old, female BALB/c mice, 10 mice in each group, were infected with 100μL (OD600nm = 1) of K. pneumoniae AH-16 bacterial suspension prepared in porcine mucin 5% via intraperitoneal injection. Mice were injected subcutaneously with tridecaptin M (10 mg/kg) and colistin (5 mg/kg). The treatment was given in three doses at 2 h, 12 h, and 24 h post-infection to ensure a 15 mg/kg/day maximum dose limit for colistin. The survival or death of mice was monitored and recorded every 12 h for 7 days ([41])."}, "[4]": {"assay": "Intravenous acute toxicity in mice", "assay_type": "in vivo, Balb/c mice", "conditions": "18 mg/kg i.v.", "description": "In total, 8–10 week old female Balb/c mice (n = 3) were administered tridecaptin M starting at 15 mg/kg, 25 mg/kg, 50 mg/kg, and 100 mg/kg. […] In this study, we administered 18 mg/kg of colistin to mice intravenously. […] Later, in the second set, intermediate concentrations of 20 mg/kg, 25 mg/kg, 30 mg/kg, 35 mg/kg, and 40 mg/kg doses were also administered to n = 4 mice. In these groups, blood was collected at 24 h post administration or immediately after visible movement stopped (40 mg/kg group), serum was separated and pooled together for each group n = 4, and biochemical serum tests were conducted."}, "[5]": {"system": "K. pneumoniae", "assay_type": "cell-based, Klebsiella pneumoniae", "description": "(§3) The MIC for all isolates was determined using the broth microdilution method. This involved preparing CA-MHB medium and serially diluting antibiotic solutions by a factor of two. The test organism was adjusted to a concentration of ≈5 × 10^5 CFU/mL. In a sterile 96-well microtiter plate, 100 µL of CA-MHB, along with 100 µL of each antibiotic, was added, and serial dilutions were made. A 100 µL suspension of the organism was added to each well and mixed, resulting in a total reaction volume of 200 µL per well. The plate was then incubated at 37°C for 16–18 h. The MIC was identified as the lowest concentration of antibiotic that prevented any visible growth of the organism ([16])."}, "[6]": {"system": "E. coli", "assay_type": "cell-based, Escherichia coli", "description": "as §3"}, "[7]": {"system": "K. pneumoniae ATCC 700603", "assay": "Peritonitis infection model for intravenous efficacy in Balb/c mice", "assay_type": "in vivo, Klebsiella pneumoniae", "conditions": "single i.v. dose 5 mg/kg, 4 h post-infection", "description": "Balb/c mice (n = 6), 8-10 weeks old, are rendered neutropenic with cyclophosphamide as in previous experiments. A bacterial load of K. pneumoniae ATCC 700603 standard strain corresponding to ≈10^7 CFU/mL was used, and 100 μL was administered intraperitoneally to cause multi-organ infection conditions. At 4 h, the pre-treatment group was euthanized, and the right kidney of each mouse was harvested, homogenized, serially diluted, and spotted on MHA plates to determine bacterial CFU count per kidney. Simultaneously, at 4 h, the remaining groups were administered 5 mg/kg colistin, 5 mg/kg tridecaptin M, 10 mg/kg tridecaptin M, and vehicle control (PBS); 24 h after treatment, the remaining groups were euthanized, and the CFU count in the right kidney was determined the same as the 4 h pre-treatment group."}, "[8]": {"assay": "in vitro", "conditions": "mouse, liver microsomes, pH 7.4", "protocol": "(§4) For without cofactors, 20 µL of PBS was added instead of pre-incubated cofactors. […] At each specified time, a 100 µL sample was taken, processed through a sample extraction procedure, and submitted for LC-MS/MS analysis ([35]). Half-life (t1/2) of test/control items was determined using the following equation\n(§5) where, elimination rate constant (k) = −(slope of linear regression curve)."}, "[9]": {"assay": "in vitro", "conditions": "human, liver microsomes, pH 7.4", "protocol": "as §4, §5"}, "[10]": {"assay": "in vitro", "conditions": "rat, liver microsomes, pH 7.4", "protocol": "as §4, §5"}, "[11]": {"molecular_target": "T1, CYP1A2 (Homo sapiens, UniProt P05177)", "T1 sequence (P05177 1-516)": "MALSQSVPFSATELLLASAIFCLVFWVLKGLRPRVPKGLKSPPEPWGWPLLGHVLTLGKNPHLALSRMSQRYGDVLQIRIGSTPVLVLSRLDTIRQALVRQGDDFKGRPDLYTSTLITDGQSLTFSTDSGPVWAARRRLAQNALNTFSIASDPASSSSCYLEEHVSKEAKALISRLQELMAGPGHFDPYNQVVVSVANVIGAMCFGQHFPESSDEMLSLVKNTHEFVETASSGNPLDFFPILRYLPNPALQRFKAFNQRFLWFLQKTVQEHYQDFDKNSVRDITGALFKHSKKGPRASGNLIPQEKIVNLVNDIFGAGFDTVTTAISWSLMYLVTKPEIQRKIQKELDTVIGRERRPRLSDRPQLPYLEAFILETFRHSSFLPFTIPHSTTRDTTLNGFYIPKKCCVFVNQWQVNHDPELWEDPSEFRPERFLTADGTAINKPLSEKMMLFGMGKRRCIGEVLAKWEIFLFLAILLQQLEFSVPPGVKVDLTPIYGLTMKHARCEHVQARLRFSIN", "assay": "in vitro", "assay_type": "biochemical", "conditions": "human, % inhibition CYP 1A2", "description": "as §1\nas §2, with “The plate was then incubated at 25°C for 25 min with shaking at 400 rpm using a thermomixer.” left out, “well.” for “well. Fluorescence was measured using a microplate reader at excitation/emission wavelengths of 415/460 nm, respectively ([37]).”"}, "[12]": {"molecular_target": "CYP2D6 (Homo sapiens, UniProt P10635)", "sequence (P10635 whole entry, canonical isoform)": "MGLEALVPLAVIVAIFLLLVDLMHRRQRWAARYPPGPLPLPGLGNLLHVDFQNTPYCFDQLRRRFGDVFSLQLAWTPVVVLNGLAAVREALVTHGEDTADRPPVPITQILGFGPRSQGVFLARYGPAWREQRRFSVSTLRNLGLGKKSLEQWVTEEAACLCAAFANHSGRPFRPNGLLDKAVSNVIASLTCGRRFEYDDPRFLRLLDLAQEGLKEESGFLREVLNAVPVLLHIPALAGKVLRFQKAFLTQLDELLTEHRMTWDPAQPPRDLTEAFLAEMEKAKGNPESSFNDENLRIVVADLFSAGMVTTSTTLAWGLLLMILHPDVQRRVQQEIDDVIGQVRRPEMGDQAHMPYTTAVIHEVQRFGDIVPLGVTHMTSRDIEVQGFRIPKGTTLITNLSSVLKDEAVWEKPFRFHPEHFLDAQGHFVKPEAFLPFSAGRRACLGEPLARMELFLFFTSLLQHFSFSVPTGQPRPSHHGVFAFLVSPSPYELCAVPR", "assay": "CYP inhibition assay, recombinant isoform, fluorescence", "assay_type": "biochemical", "conditions": "human, recombinant CYP2D6", "description": "as §1\nas §2, with “The plate was then incubated at 25°C for 25 min with shaking at 400 rpm using a thermomixer.” left out, “well.” for “well. Fluorescence was measured using a microplate reader at excitation/emission wavelengths of 415/460 nm, respectively ([37]).”"}}, "data": [{"compound": "Nc1ccc(S(=O)(=O)Nc2ccnn2-c2ccccc2)cc1", "note": "[Sulfaphenazole, reference compound]", "values": [{"measurement": "inhibition at 25 min, 0.001 µM", "setting": "[1]; 0.001 µM", "value": "< 0", "unit": "%"}, {"measurement": "inhibition at 25 min, 0.003 µM", "setting": "[1]; 0.003 µM", "value": 3.42, "unit": "%"}, {"measurement": "inhibition at 25 min, 0.01 µM", "setting": "[1]; 0.01 µM", "value": 11.3, "unit": "%"}, {"measurement": "inhibition at 25 min, 0.03 µM", "setting": "[1]; 0.03 µM", "value": 27.2, "unit": "%"}, {"measurement": "inhibition at 25 min, 0.1 µM", "setting": "[1]; 0.1 µM", "value": 34.7, "unit": "%"}, {"measurement": "inhibition at 25 min, 0.3 µM", "setting": "[1]; 0.3 µM", "value": 45.2, "unit": "%"}, {"measurement": "inhibition at 25 min, 1 µM", "setting": "[1]; 1 µM", "value": 53.5, "unit": "%"}, {"measurement": "inhibition at 25 min, 3 µM", "setting": "[1]; 3 µM", "value": 57.9, "unit": "%"}]}, {"compound": "colistin [reference compound]", "values": [{"measurement": "subcutaneous dose known to be lethal to mice", "setting": "[2]", "value": "exceeding 36 mg/kg"}, {"measurement": "mortality in acute toxicity study", "setting": "[2]; colistin group of the same study", "value": "all mice in the colistin group died within 24 h"}, {"measurement": "survival at the end of 7 days", "setting": "[3]", "value": 40, "unit": "%"}, {"measurement": "outcome of i.v. administration", "setting": "[4]", "value": "immediately lethal"}, {"measurement": "MIC range", "setting": "[5]; Col-S (colistin sensitive) clinical isolates (72)", "value": "0.25 to 2", "unit": "µg/mL"}, {"measurement": "MIC", "setting": "[5]; Std. QC strain ATCC 700603", "value": 0.5, "unit": "µg/mL"}, {"measurement": "MIC range", "setting": "[6]; Col-S clinical isolates (52)", "value": "0.25 to 1", "unit": "µg/mL"}, {"measurement": "MIC", "setting": "[6]; Std. QC strain ATCC 25922", "value": 0.25, "unit": "µg/mL"}, {"measurement": "efficacy (CFU/kidney) compared with tridecaptin M", "setting": "[7]", "value": "superior performance"}]}, {"compound": "O=C(O)Cc1ccccc1Nc1c(Cl)cccc1Cl", "note": "[Diclofenac, reference compound]", "values": [{"measurement": "half-life", "setting": "[8]", "value": 1.54, "unit": "h"}, {"measurement": "microsomal CLint", "setting": "[8]", "value": 15, "unit": "µL/min/mg"}, {"measurement": "remaining at 0.5 h", "setting": "[8]", "value": 77.7, "unit": "%"}, {"measurement": "remaining at 1 h", "setting": "[8]", "value": 58.7, "unit": "%"}, {"measurement": "remaining at 2 h", "setting": "[8]", "value": 40.1, "unit": "%"}, {"measurement": "half-life", "setting": "[9]", "value": 0.327, "unit": "h"}, {"measurement": "microsomal CLint", "setting": "[9]", "value": 70.6, "unit": "µL/min/mg"}, {"measurement": "remaining at 0.25 h", "setting": "[9]", "value": 53.2, "unit": "%"}, {"measurement": "remaining at 0.5 h", "setting": "[9]", "value": 36.5, "unit": "%"}, {"measurement": "remaining at 1 h", "setting": "[9]", "value": 11.6, "unit": "%"}, {"measurement": "remaining at 2 h", "setting": "[9]", "value": 8.3, "unit": "%"}, {"measurement": "half-life", "setting": "[10]", "value": "> 2", "unit": "h"}, {"measurement": "microsomal CLint", "setting": "[10]", "value": "< 11.6", "unit": "µL/min/mg"}, {"measurement": "remaining at 0.25 h", "setting": "[10]", "value": 102, "unit": "%"}, {"measurement": "remaining at 0.5 h", "setting": "[10]", "value": 88.6, "unit": "%"}, {"measurement": "remaining at 1 h", "setting": "[10]", "value": 67.2, "unit": "%"}, {"measurement": "remaining at 2 h", "setting": "[10]", "value": 64.5, "unit": "%"}]}, {"compound": "Cc1nc2c([nH]1)c(=O)n(C)c(=O)n2Cc1ccco1", "note": "[Furafylline, reference compound]", "values": [{"measurement": "inhibition at 25 min, 0.01 µM", "setting": "[11]", "value": "< 0", "unit": "%"}, {"measurement": "inhibition at 25 min, 0.03 µM", "setting": "[11]", "value": "< 0", "unit": "%"}, {"measurement": "inhibition at 25 min, 0.1 µM", "setting": "[11]", "value": "< 0", "unit": "%"}, {"measurement": "inhibition at 25 min, 0.3 µM", "setting": "[11]", "value": 9.3, "unit": "%"}, {"measurement": "inhibition at 25 min, 1 µM", "setting": "[11]", "value": 45.3, "unit": "%"}, {"measurement": "inhibition at 25 min, 3 µM", "setting": "[11]", "value": 67.7, "unit": "%"}, {"measurement": "inhibition at 25 min, 10 µM", "setting": "[11]", "value": 90.8, "unit": "%"}]}, {"compound": "C=C[C@H]1C[N@@]2CC[C@H]1C[C@@H]2[C@@H](O)c1ccnc2ccc(OC)cc12", "note": "[Quinidine, reference compound]", "values": [{"measurement": "inhibition at 25 min, 0.003 µM", "setting": "[12]", "value": 52.4, "unit": "%"}, {"measurement": "inhibition at 25 min, 0.0003 µM", "setting": "[12]; 0.0003 µM, read-out: % inhibition CYP 2D6", "value": "< 0", "unit": "%"}, {"measurement": "inhibition at 25 min, 0.001 µM", "setting": "[12]; 0.001 µM, read-out: % inhibition CYP 2D6", "value": 14, "unit": "%"}, {"measurement": "inhibition at 25 min, 0.01 µM", "setting": "[12]; 0.01 µM, read-out: % inhibition CYP 2D6", "value": 88.6, "unit": "%"}, {"measurement": "inhibition at 25 min, 0.03 µM", "setting": "[12]; 0.03 µM, read-out: % inhibition CYP 2D6", "value": 92.6, "unit": "%"}, {"measurement": "inhibition at 25 min, 0.1 µM", "setting": "[12]; 0.1 µM, read-out: % inhibition CYP 2D6", "value": 93.4, "unit": "%"}, {"measurement": "inhibition at 25 min, 0.3 µM", "setting": "[12]; 0.3 µM, read-out: % inhibition CYP 2D6", "value": 92.5, "unit": "%"}, {"measurement": "inhibition at 25 min, 1 µM", "setting": "[12]; 1 µM, read-out: % inhibition CYP 2D6", "value": 95.7, "unit": "%"}]}]}
